PubChem BioAssay AID256 (DTP/NCI, 2004)
Several values for one entry are separate records, joined by “and”; a condition that tells them apart may be missing. Identical values can stand only once. Toxic doses and inconclusive results are not listed. Rule for the calls: active = survival T/C of 150% or more; inactive = T/C below 125% in these data.

System: CD2F1 mice, L1210 leukemia ip, survival T/C
Assay: NCI In Vivo Anticancer Drug Screen. Data for tumor model L1210 Leukemia (intraperitoneal) in CD2F1 (CDF1) mice
Conditions: endpoint: mean survival time, higher = longer survival
How it was run: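 Compound-dosed mice with transplantable tumor versus matched vehicle controls; endpoint ratio T/C reported.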

[1] = dose: 100.0 mg/kg/injection, schedule: Q04DX003 (ip), vehicle: saline
[2] = dose: 200.0 mg/kg/injection, schedule: Q04DX003 (ip), vehicle: saline
[3] = dose: 400.0 mg/kg/injection, schedule: Q04DX003 (ip), vehicle: saline
[4] = dose: 100.0 mg/kg/injection, schedule: Q01DX009 (ip), vehicle: saline with Tween-80
[5] = dose: 100.0 mg/kg/injection, schedule: Q04DX003 (ip), vehicle: saline with Tween-80
[6] = dose: 200.0 mg/kg/injection, schedule: Q01DX009 (ip), vehicle: saline with Tween-80
[7] = dose: 200.0 mg/kg/injection, schedule: Q04DX003 (ip), vehicle: saline with Tween-80
[8] = dose: 400.0 mg/kg/injection, schedule: Q01DX009 (ip), vehicle: saline with Tween-80
[9] = dose: 400.0 mg/kg/injection, schedule: Q04DX003 (ip), vehicle: saline with Tween-80

Measured: T/C

CC(C)N1CCOC1c1ccccc1 (stereo unspecified)
inactive: dose: 75.0 mg/kg/injection, schedule: Q01DX001 (ip), vehicle: saline 101 % of control | dose: 150.0 mg/kg/injection, schedule: Q01DX001 (ip), vehicle: saline 101 % of control | dose: 300.0 mg/kg/injection, schedule: Q01DX001 (ip), vehicle: saline 97 % of control

CCSC(SCC)[C@H](NC(C)=O)[C@@H](O)[C@H](O)[C@H](O)CO
inactive: [1] 101 % of control | [2] 98 % of control | [3] 95 % of control

ClCc1ccc(Cl)cc1
inactive: dose: 25.0 mg/kg/injection, schedule: Q01DX001 (ip), vehicle: saline with Tween-80 102 % of control | dose: 50.0 mg/kg/injection, schedule: Q01DX001 (ip), vehicle: saline with Tween-80 106 % of control | dose: 100.0 mg/kg/injection, schedule: Q01DX001 (ip), vehicle: saline with Tween-80 92 % of control and 102 % of control

CCCCC(=O)/C=C/Sc1n[nH]c(=O)[nH]c1=O
inactive: dose: 12.5 mg/kg/injection, schedule: Q01DX005 (ip), vehicle: distilled water + Tween-80 104 % of control | dose: 25.0 mg/kg/injection, schedule: Q01DX005 (ip), vehicle: distilled water + Tween-80 93 % of control | dose: 50.0 mg/kg/injection, schedule: Q01DX005 (ip), vehicle: distilled water + Tween-80 90 % of control

Cc1cnc(O[Si](C)(C)C)nc1O[Si](C)(C)C
inactive: [4] 97 % of control | [5] 97 % of control | [6] 96 % of control | [7] 98 % of control | [8] 103 % of control | [9] 101 % of control

CN(N)c1nc2c(=O)[nH]cnc2n1C1OC(CO)C(O)C1O (stereo unspecified)
inactive: dose: 12.5 mg/kg/injection, schedule: Q01DX005 (ip), vehicle: water 104 % of control | dose: 25.0 mg/kg/injection, schedule: Q01DX005 (ip), vehicle: water 101 % of control | dose: 50.0 mg/kg/injection, schedule: Q01DX005 (ip), vehicle: water 95 % of control | dose: 100.0 mg/kg/injection, schedule: Q01DX005 (ip), vehicle: water 103 % of control | dose: 200.0 mg/kg/injection, schedule: Q01DX005 (ip), vehicle: water 95 % of control

COc1c(NS(=O)(=O)c2ccccc2)cc2c3c(cccc13)/C(=C1\Cc3cccc4c(OC)c(NS(=O)(=O)c5ccccc5)cc1c34)C2
inactive: [5] 95 % of control | [7] 91 % of control | [9] 92 % of control

COc1ccc(OC)c2nc(-c3ccccc3)c(-c3ccccc3)nc12
inactive: [4] 98 % of control | [6] 97 % of control | [8] 104 % of control

COc1cc([N+](=O)[O-])ccc1NC(=O)OC/C=C/c1ccccc1
inactive: [4] 92 % of control | [6] 91 % of control

CN1C(=S)c2ccccc2S1(=O)=O
inactive: dose: 100.0 mg/kg/injection, schedule: Q01DX009 (ip), vehicle: saline 96 % of control | dose: 200.0 mg/kg/injection, schedule: Q01DX009 (ip), vehicle: saline 96 % of control | dose: 400.0 mg/kg/injection, schedule: Q01DX009 (ip), vehicle: saline 102 % of control

O=C(CNC(=O)Nc1cccc([N+](=O)[O-])c1)NNC(=O)Nc1ccc(Cl)c([N+](=O)[O-])c1
inactive: [4] 91 % of control | [6] 87 % of control

COc1ccc(C2=NC(C)Cc3cc(OC)c(OC)cc32)cc1OC (stereo unspecified)
inactive: dose: 12.5 mg/kg/injection, schedule: Q01DX009 (ip), vehicle: water 96 % of control | dose: 25.0 mg/kg/injection, schedule: Q01DX009 (ip), vehicle: water 94 % of control | dose: 50.0 mg/kg/injection, schedule: Q01DX009 (ip), vehicle: water 94 % of control | dose: 100.0 mg/kg/injection, schedule: Q01DX009 (ip), vehicle: water 91 % of control

Nc1nc(SCC(=O)c2ccccc2)c2[nH]cnc2n1
inactive: dose: 100.0 mg/kg/injection, schedule: Q04DX003 (ip), vehicle: saline sonified 113 % of control | dose: 176.0 mg/kg/injection, schedule: Q04DX003 (ip), vehicle: saline with Tween-80 113 % of control | dose: 200.0 mg/kg/injection, schedule: Q04DX003 (ip), vehicle: saline sonified 107 % of control

CN(C)C=NCCc1ccccc1
inactive: dose: 50.0 mg/kg/injection, schedule: Q01DX001 (ip), vehicle: saline 97 % of control

Cc1cc(C(C)(C)C)c(Oc2ccc([N+](=O)[O-])cc2S(=O)(=O)O)c(C(C)(C)C)c1
inactive: [5] 102 % of control | [7] 101 % of control | [9] 92 % of control

CC(C)NC(=O)CCCn1c(=O)c2ccccc2c(=O)n1C
inactive: dose: 25.0 mg/kg/injection, schedule: Q04DX003 (ip), vehicle: saline 104 % of control | dose: 50.0 mg/kg/injection, schedule: Q04DX003 (ip), vehicle: saline 96 % of control | [1] 101 % of control | [2] 96 % of control | [3] 98 % of control

ClC(Cl)=[C](Cl)[Hg][C](Cl)=C(Cl)Cl
inactive: dose: 6.25 mg/kg/injection, schedule: Q01DX009 (ip), vehicle: saline with Tween-80 93 % of control

CC(C)C[CH2][Pb]([Cl])([CH2]CC(C)C)[CH2]CC(C)C
inactive: dose: 0.06 mg/kg/injection, schedule: Q01DX009 (ip), vehicle: saline 97 % of control | dose: 0.12 mg/kg/injection, schedule: Q01DX009 (ip), vehicle: saline 97 % of control | dose: 0.25 mg/kg/injection, schedule: Q01DX009 (ip), vehicle: saline 97 % of control | dose: 0.5 mg/kg/injection, schedule: Q01DX009 (ip), vehicle: saline 100 % of control | dose: 1.0 mg/kg/injection, schedule: Q01DX009 (ip), vehicle: saline 100 % of control

O=C(Nc1ccccc1C(F)(F)F)OCCOc1ccccc1Cl
inactive: dose: 100.0 mg/kg/injection, schedule: Q01DX009 (ip), vehicle: Klucel (hydroxypropylcellulose) (HPC) 103 % of control | dose: 400.0 mg/kg/injection, schedule: Q01DX009 (ip), vehicle: Klucel (hydroxypropylcellulose) (HPC) 89 % of control

Nc1csc(N)n1
inactive: dose: 37.5 mg/kg/injection, schedule: Q01DX009 (ip), vehicle: saline 98 % of control | dose: 75.0 mg/kg/injection, schedule: Q01DX009 (ip), vehicle: saline 98 % of control | dose: 150.0 mg/kg/injection, schedule: Q01DX009 (ip), vehicle: saline 98 % of control

COc1cc(OC)c(NC(=O)Nc2ccc(Cl)c(C(F)(F)F)c2)cc1Cl
inactive: dose: 50.0 mg/kg/injection, schedule: Q01DX009 (ip), vehicle: saline with Tween-80 93 % of control | [4] 93 % of control | [6] 93 % of control
